Measured values: US12383527B2, “Methods for treating triple negative breast cancer using salvianolic acid B” (HOWARD UNIVERSITY, priority 2018, dated 2025)

Tests used:
[1] = test system: ceramides; assay: Ceramide levels in MDA cells by flow cytometry; assay type: cell-based, human; settings: Sal-B 50 μM, 24 hours
Experimental: Ceramide levels were further analyzed with flow cytometry, according to the method described above, through comparison of Sal-B treated and untreated MDA cells. MDA cells were treated with 50 μM and 100 μM of Sal-B, respectively, for 24 hours and ceramide levels were then analyzed by flow cytometry.
Similarly, immunohistochemistry was carried out, as generally described above, to evaluate the expression of ceramides in MDA tumor xenografts (FIG. 9, panel C). The fixed cells were sequentially incubated with anti-ceramide primary antibody (1:100) for 2 hours and PE-labeled secondary antibody (1:200) for 30 minutes, and the ceramide positive cells were counted (FIG. 9, panel B).

[2] = test system: survivin; assay: Immunohistochemical staining of survivin in MDA tumor xenografts; assay type: in vivo, athymic nude mice; settings: Sal-B 80 mg/kg three times per week; versus untreated group
Experimental: Human tumor xenografts in athymic nude mice. […] The animal protocol was approved by the Howard University Animal Care and Use Committee. Four-week-old female athymic nude mice (Nu/Nu) were obtained from Harlan Sprague Dawley (Indianapolis, IN). All mice were provided the Harlan Teklad #2018 Global 18% protein rodent diet and water ad libitum. Mice were housed in temperature-controlled rooms (74±2° F.) with a 12-hour alternating light-dark cycle. MDA cells (3×10^6/50 μL/spot) were subcutaneously injected into the both sides of lower back of mice using a 27-gauge needle. […]
Immunohistochemical staining was performed as described previously (Hao Y, et al., “Enforced expression of miR-101 inhibits prostate cancer cell growth by modulating the COX-2 pathway in vivo,” Cancer Prev Res (Phila), 2011; 4: 1073-1083). […] For the quantification, ten high-magnification (40×) fields were randomly selected from each slide of tumors and the positive cells were counted. The protein expression was expressed as the average number of positive cells per high magnification field.

[3] = test system: MDA-MB-231 cells; assay: Cell cycle profile analysis by flow cytometry; assay type: cell-based, human; settings: Sal-B 50 μM and 100 μM, 24 hours
Experimental: (§1) Cell cycle profile analysis using flow cytometry and Western blot analysis. To understand the effects of Sal-B on the cell cycle of cancer cells, the cell cycle profile was analyzed using flow cytometry. The cells from both cell lines were treated with Sal-B (50 and 100 µM) or doxorubicin (0.1 and 1 μM) for 24 hours and then fixed in chilled 80% ethanol. The fixed cells were incubated in a solution containing 100 μg/mL RNase at 37° C. water bath for 45 minutes. Propidium iodide (final concentration of 50 μg/ml) was then added to the cells and incubated in a 37° C. water bath for another 15 minutes. The analysis was carried out with a FACStar flow cytometer (Becton Dickinson, San Jose, CA). Ten thousand cells per sample were analyzed, cach sample was done in triplicate and the experiment was repeated three times.

[4] = test system: MCF-7 cells; assay: Cell cycle profile analysis by flow cytometry; assay type: cell-based, human; settings: Sal-B 50 μM and 100 μM, 24 hours
Experimental: as §1

[5] = test system: MDA-MB-231 cells; assay: Luciferase assay (bioluminescent cell viability); assay type: cell-based, human
Experimental: (§2) Cell lines and culture. MCF-7 and MDA human breast cancer cell lines stably transfected with firefly luciferase gene were purchased from Caliper Life Sciences (Hanover, MD). MCF-7 cells were cultured in DMEM medium (Invitrogen, Carlsbad, CA) and MDA cells were grown in DMEM/F-12 (1:1) medium (Invitrogen). Both media were supplemented with 10% fetal bovine serum (Invitrogen) and antibiotic-antimycotic mixture (100 IU/ml penicillin and 100 μg/ml streptomycin; Cellgro). The cells were maintained at 37° C. in 5% CO2. All experiments were performed when the cells were in the logarithmic phase of growth. Luciferase assay. The MDA cell line and the hormone receptor-positive MCF-7 cell line were utilized to test the effectiveness of Sal-B and doxorubicin on cancer cell viability. Both cell lines had been stably transfected and expressed the firefly luciferase gene. The bioluminescent signal intensity reflects the cell metabolic activity, being highly correlated with the cell viability. Cell viability was evaluated using the sensitive bioluminescent optical imaging. The cells (10,000 per well) were seeded in flat-bottomed 96-well plates in the above-identified medium with 10% fetal bovine serum and allowed to grow overnight. The old medium was then replaced with fresh medium containing different concentrations of Sal-B (50, 100, 150, and 200 μM) or doxorubicin (0.1, 0.2, 0.5, and 1 μM). The cells were further cultured for 24 hours and D-luciferin was added to each well and mixed gently (final concentration of 150 μ/ml). The signal was measured with the Xenogen IVIS 200 imaging system (Caliper Life Sciences, Hopkinton, MA, USA). The system was equipped with a highly sensitive, cooled charge-coupled device (CCD) camera and a light-tight specimen box. Imaging and quantification of signals was controlled by the acquisition and analysis software Living Image 3.0. The bioluminescent signal from the cells in each well was expressed as total flux (photons per second (p/s)). At least five replicates were performed in each experiment, and each experiment was repeated at least three times. The representative data are presented.

[6] = test system: MCF-7 cells; assay: Luciferase assay (bioluminescent cell viability); assay type: cell-based, human; settings: Homo sapiens
Experimental: as §2

[7] = test system: survivin; assay: Western blot of survivin expression in MDA and MCF-7 cells; assay type: cell-based, human; settings: Sal-B 50 μM and 100 μM, 24 hours
Experimental: The immunohistochemical results were consistent with those from Western blotting (FIG. 7, panel A). Western blot analysis was used to determine the expression of apoptosis-related proteins Bcl-XL, survivin, caspase-3 and caspase-8 (FIG. 7, panel A). β-actin was used as an internal control for Western blotting. The MCD-7 and MDA cells were treated with Sal-B (50 μM and 100 μM) and doxorubicin (0.1 μM and 1 μM), respectively, for 24 hours. Proteins were extracted from the cells with RIPA lysis buffer (Santa Cruz Biotechnology, Santa Cruz, CA) and the protein concentrations were quantified with Bio-Rad protein quantification kit. Whole-cell proteins were separated on 8% SDS-polyacrylamide gel, transferred to the polyvinylidene difluoride membrane (Bio-Rad), and then probed with the indicated primary antibodies overnight at 4° C. Washed blots were then incubated with horseradish peroxidase-conjugated anti-rabbit, anti-mouse, or anti-goat antibody (Santa Cruz Biotechnology), respectively, for one hour at room temperature. Blots were developed and visualized with ECL detection system (Bio-Rad).

For `O=C(/C=C/c1ccc(O)c2c1[C@H](C(=O)O[C@H](Cc1ccc(O)c(O)c1)C(=O)O)[C@@H](c1ccc(O)c(O)c1)O2)O[C@H](Cc1ccc(O)c(O)c1)C(=O)O` [Sal-B, Salvianolic acid B], the “ceramide level by flow cytometry” value [1] was “sufficient to enhance the ceramide level”, the “survivin level in tumors” value [2] was “decreasing” and the “changes in the cell cycle phases” value [3] was “no significant changes”. For the same molecule, the “changes in the cell cycle phases” value [4] was “no significant changes”, the viability at 100 µM ([5]; Homo sapiens, MDA-MB-231, 24 h, read-out: cell viability compared with untreated cells) was 69% and the IC50 ([5]; Homo sapiens, MDA-MB-231, MDA cells, 24 hours, read-out: half maximal inhibitory concentration (IC50), cell viability) was 125 µM. The “difference in inhibitory effect on cell viability between MDA and MCF-7 cells” value ([5]; Sal-B 50-200 μM, 24 hours) was “No significant difference”, the viability at 100 µM ([6]; MCF7, 24 h, read-out: cell viability compared with untreated cells) was 65% and the IC50 ([6]; MCF7, MCF-7 cells, 24 hours, read-out: half maximal inhibitory concentration (IC50), cell viability) was 120 µM. For the same molecule, the survivin protein expression ([7]; MCF-7 cells) was “downregulated” and the survivin protein expression ([7]; MDA cells) was “downregulated”.
